In brackets after ≈: the same amount, converted by molar mass.
How the values were obtained:
Type in all cases: cell-based
Staphylococcus aureus = test: Minimum inhibitory concentration (MIC) in vitro, agar dilution method, quality control strain; conditions: Staphylococcus aureus, ATCC27853
Excerpt: (§1) Hydrates Samples: • The 1/2 hydrates prepared according to Example 2; • Content (purity % wt): 99.0%; • The 1/12 hydrates prepared according to Example 253; • Content (purity % wt): 98.9%; • The 2/7 hydrates prepared according to Example 106; • Content (purity % wt): 98.8%; • The 2/5 hydrates prepared according to Example 162; • Content (purity % wt): 99.0%; • The 3/4 hydrates prepared according to Example 337; • Content (purity % wt): 98.8%; • Preparation: dissolved in DMSO, and further diluted with sterile distilled water to desired concentration. • The hydrates samples were supplied by Sichuan Beilike Biotechnology LTD.
(§2) Anhydrous Sample: • The anhydrous compounds prepared according to Example 1. • Content (purity % wt): 98.6%; • Preparation: dissolved in DMSO, and further diluted with sterile distilled water to desired concentration; • The anhydrous sample was supplied by Sichuan Beilike Biotechnology LTD.
(§3) Control Samples • Vancomycin: provided by Sichuan Beilike Biotechnology LTD, purchased from Eli Lilly Japan K.K. • Lot No.: WM16151 (production date: Apr. 10, 2007, expiration date: Apr. 9, 2009). • Specification: 500 mg/bottle; solubility (physicochemical properties): soluble in water. • Linezolid (LZ): provided by Sichuan Beilike Biotechnology LTD.
(§4) Bacteria Strains • Clinically isolated strains: clinically isolated bacterial pathogens collected in Sichuan and Beijing areas from March 2007 to May 2008. • Species include: Staphylococcus aureus MRSA, Staphylococcus aureus MSSA, S. epidermidis MRSE, S. epidermidis MSSE, E. feacalis, and E. feacium, a total of 51 strains. • Quality control strains: Staphylococcus aureus […] strain kept in Sichuan Industrial Institute of Antibiotics, purchased from the medical testing center of the Ministry of Health, China.
(§5) Experimental Method: • Measurement of the minimum inhibitory concentration (MIC) in vitro: • The minimum inhibitory concentration (MIC) of each test sample against test strains was measured by using the agar dilution method recommended by the U.S. National Committee for Clinical Laboratory Standards (CLSI/NCCIs).
(§6) Based on the CLSI/NCCL's testing standard with respect to vancomycin and linezolid (see Table 6), the minimum inhibitory concentration (MIC) values of every strain were reported, and the MIC50 (the concentration that inhibits 50% of the different strains of bacteria), MIC90 (the concentration that inhibits 90% of the different strains of bacteria), and MICrange (the range of the MIC value of the tested strains) were observed.

S. epidermidis MSSE = test: Minimum inhibitory concentration (MIC) in vitro, agar dilution method
Excerpt: as §1, §2, §3, §4, §5, §6

E. feacium = test: as above
Excerpt: as §1, §2, §3, §4, §5, §6

[1] = test system: Staphylococcus aureus MRSA; test: as above
Excerpt: as §1, §2, §3, §4, §5, §6

S. epidermidis MRSE = test: as above
Excerpt: as §1, §2, §3, §4, §5, §6

[2] = test system: Staphylococcus aureus MSSA; test: as above
Excerpt: as §1, §2, §3, §4, §5, §6

E. feacalis = test: as above
Excerpt: as §1, §2, §3, §4, §5, §6

[3] = Staphylococcus epidermidis, MRSE

CN[C@H](CC(C)C)C(=O)N[C@H]1C(=O)N[C@@H](CC(N)=O)C(=O)N[C@H]2C(=O)N[C@H]3C(=O)N[C@H](C(=O)N[C@H](C(=O)O)c4cc(O)cc(O)c4-c4cc3ccc4O)[C@H](O)c3ccc(c(Cl)c3)Oc3cc2cc(c3O[C@@H]2O[C@H](CO)[C@@H](O)[C@H](O)[C@H]2O[C@H]2C[C@](C)(N)[C@H](O)[C@H](C)O2)Oc2ccc(cc2Cl)[C@H]1O [Vancomycin, reference compound]
MIC (Staphylococcus aureus): 1 µg/mL (≈ 0.69 µM) | MICrange (S. epidermidis MSSE; S. ep MSSE (10 strains), clinically isolated): 0.06 to 1 µg/mL | MIC50 (S. epidermidis MSSE; Staphylococcus epidermidis): 0.5 µg/mL (≈ 0.345 µM) | MIC90 (S. epidermidis MSSE; Staphylococcus epidermidis): 1 µg/mL (≈ 0.69 µM) | MIC (S. epidermidis MSSE; Staphylococcus epidermidis, strain S. ep MSSE87 (Table 7 No. 23)): 0.125 µg/mL (≈ 0.0863 µM) | MIC (S. epidermidis MSSE; Staphylococcus epidermidis, strain S. ep MSSE88 (Table 8 No. 5)): 1 µg/mL (≈ 0.69 µM) | MIC (S. epidermidis MSSE; Staphylococcus epidermidis, strain S. ep MSSE113 (Table 7 No. 24)): 0.5 µg/mL (≈ 0.345 µM) | MIC (S. epidermidis MSSE; Staphylococcus epidermidis, strain S. ep MSSE116 (Table 7 No. 25)): 0.125 µg/mL (≈ 0.0863 µM) | MIC (S. epidermidis MSSE; Staphylococcus epidermidis, strain S. ep MSSE118 (Table 8 No. 2)): 1 µg/mL (≈ 0.69 µM) | MIC (S. epidermidis MSSE; Staphylococcus epidermidis, strain S. ep MSSE119 (Table 7 No. 27)): 0.125 µg/mL (≈ 0.0863 µM) | MIC (S. epidermidis MSSE; Staphylococcus epidermidis, strain S. ep MSSE137 (Table 8 No. 4)): 1 µg/mL (≈ 0.69 µM) | MIC (S. epidermidis MSSE; Staphylococcus epidermidis, strain S. ep MSSE140 (Table 8 No. 3)): 0.5 µg/mL (≈ 0.345 µM) | MIC (S. epidermidis MSSE; Staphylococcus epidermidis, strain S. ep MSSE142 (Table 7 No. 26)): 0.06 µg/mL (≈ 0.0414 µM) | MIC (S. epidermidis MSSE; Staphylococcus epidermidis, strain S. ep MSSE153 (Table 8 No. 1)): 0.5 µg/mL (≈ 0.345 µM) | MIC50 (E. feacium): 4 µg/mL (≈ 2.76 µM) | MIC90 (E. feacium): 8 µg/mL (≈ 5.52 µM) | MICrange (E. feacium; E. feacium (5 strains), clinically isolated): 2 to 8 µg/mL | MIC (E. feacium; strain Efm 98 (Table 8 No. 21)): 4 µg/mL (≈ 2.76 µM) | MIC (E. feacium; strain Efm 171 (Table 8 No. 25)): 8 µg/mL (≈ 5.52 µM) | MIC (E. feacium; strain Efm 197 (Table 8 No. 22)): 4 µg/mL (≈ 2.76 µM) | MIC (E. feacium; strain Efm N3 (Table 8 No. 23)): 2 µg/mL (≈ 1.38 µM) | MIC (E. feacium; strain Efm N4 (Table 8 No. 24)): 8 µg/mL (≈ 5.52 µM) | MICrange ([1]; S. MRSA (10 strains), clinically isolated): 0.5 to 1 µg/mL | MIC50 ([1]; Staphylococcus aureus, MRSA): 1 µg/mL (≈ 0.69 µM) | MIC90 ([1]; Staphylococcus aureus, MRSA): 1 µg/mL (≈ 0.69 µM) | MIC ([1]; Staphylococcus aureus, MRSA, strain S. MRSA 29 (Table 7 No. 15)): 0.5 µg/mL (≈ 0.345 µM) | MIC ([1]; Staphylococcus aureus, MRSA, strain S. MRSA 101 (Table 7 No. 14)): 0.5 µg/mL (≈ 0.345 µM) | MIC ([1]; Staphylococcus aureus, MRSA, strain S. MRSA 201 (Table 7 No. 13)): 1 µg/mL (≈ 0.69 µM) | MIC ([1]; Staphylococcus aureus, MRSA, strain S. MRSA B27 (Table 7 No. 21)): 1 µg/mL (≈ 0.69 µM) | MIC ([1]; Staphylococcus aureus, MRSA, strain S. MRSA B105 (Table 7 No. 17)): 1 µg/mL (≈ 0.69 µM) | MIC ([1]; Staphylococcus aureus, MRSA, strain S. MRSA B143 (Table 7 No. 19)): 0.5 µg/mL (≈ 0.345 µM) | MIC ([1]; Staphylococcus aureus, MRSA, strain S. MRSA B151 (Table 7 No. 20)): 1 µg/mL (≈ 0.69 µM) | MIC ([1]; Staphylococcus aureus, MRSA, strain S. MRSA B164 (Table 7 No. 16)): 1 µg/mL (≈ 0.69 µM) | MIC ([1]; Staphylococcus aureus, MRSA, strain S. MRSA B199 (Table 7 No. 22)): 1 µg/mL (≈ 0.69 µM) | MIC ([1]; Staphylococcus aureus, MRSA, strain S. MRSA B617 (Table 7 No. 18)): 5 µg/mL (≈ 3.45 µM) | MICrange (S. epidermidis MRSE; S. ep MRSE (10 strains), clinically isolated): 0.25 to 1 µg/mL | MIC50 (S. epidermidis MRSE; [3]): 1 µg/mL (≈ 0.69 µM) | MIC90 (S. epidermidis MRSE; [3]): 1 µg/mL (≈ 0.69 µM) | MIC (S. epidermidis MRSE; Staphylococcus epidermidis, MRSE, strain S. ep MRSE4 (Table 8 No. 9)): 1 µg/mL (≈ 0.69 µM) | MIC (S. epidermidis MRSE; Staphylococcus epidermidis, MRSE, strain S. ep MRSE20 (Table 8 No. 6)): 1 µg/mL (≈ 0.69 µM) | MIC (S. epidermidis MRSE; Staphylococcus epidermidis, MRSE, strain S. ep MRSE87 (Table 8 No. 13)): 0.25 µg/mL (≈ 0.173 µM) | MIC (S. epidermidis MRSE; Staphylococcus epidermidis, MRSE, strain S. ep MRSE90 (Table 8 No. 10)): 1 µg/mL (≈ 0.69 µM) | MIC (S. epidermidis MRSE; Staphylococcus epidermidis, MRSE, strain S. ep MRSE101 (Table 8 No. 7)): 1 µg/mL (≈ 0.69 µM) | MIC (S. epidermidis MRSE; Staphylococcus epidermidis, MRSE, strain S. ep MRSE105 (Table 8 No. 11)): 0.5 µg/mL (≈ 0.345 µM) | MIC (S. epidermidis MRSE; Staphylococcus epidermidis, MRSE, strain S. ep MRSE140 (Table 8 No. 14)): 1 µg/mL (≈ 0.69 µM) | MIC (S. epidermidis MRSE; Staphylococcus epidermidis, MRSE, strain S. ep MRSE142 (Table 8 No. 12)): 0.5 µg/mL (≈ 0.345 µM) | MIC (S. epidermidis MRSE; Staphylococcus epidermidis, MRSE, strain S. ep MRSE210 (Table 8 No. 15)): 1 µg/mL (≈ 0.69 µM) | MIC (S. epidermidis MRSE; Staphylococcus epidermidis, MRSE, strain S. ep MRSE211 (Table 8 No. 8)): 0.5 µg/mL (≈ 0.345 µM) | MICrange ([2]; S. MSSA (11 strains), clinically isolated): 0.5 to 1 µg/mL | MIC50 ([2]; Staphylococcus aureus, MSSA): 1 µg/mL (≈ 0.69 µM) | MIC90 ([2]; Staphylococcus aureus, MSSA): 1 µg/mL (≈ 0.69 µM) | MIC ([2]; Staphylococcus aureus, MSSA, strain S. MSSA 123 (Table 7 No. 3)): 0.5 µg/mL (≈ 0.345 µM) | MIC ([2]; Staphylococcus aureus, MSSA, strain S. MSSA 187 (Table 7 No. 7)): 0.5 µg/mL (≈ 0.345 µM) | MIC ([2]; Staphylococcus aureus, MSSA, strain S. MSSA 195 (Table 7 No. 6)): 1 µg/mL (≈ 0.69 µM) | MIC ([2]; Staphylococcus aureus, MSSA, strain S. MSSA 195 (Table 7 No. 12)): 1 µg/mL (≈ 0.69 µM) | MIC ([2]; Staphylococcus aureus, MSSA, strain S. MSSA 201 (Table 7 No. 11)): 1 µg/mL (≈ 0.69 µM) | MIC ([2]; Staphylococcus aureus, MSSA, strain S. MSSA 232 (Table 7 No. 2)): 0.5 µg/mL (≈ 0.345 µM) | MIC ([2]; Staphylococcus aureus, MSSA, strain S. MSSA 275 (Table 7 No. 10)): 1 µg/mL (≈ 0.69 µM) | MIC ([2]; Staphylococcus aureus, MSSA, strain S. MSSA 466 (Table 7 No. 8)): 0.5 µg/mL (≈ 0.345 µM) | MIC ([2]; Staphylococcus aureus, MSSA, strain S. MSSA 519 (Table 7 No. 9)): 1 µg/mL (≈ 0.69 µM) | MIC ([2]; Staphylococcus aureus, MSSA, strain S. MSSA 520 (Table 7 No. 4)): 0.5 µg/mL (≈ 0.345 µM) | MIC ([2]; Staphylococcus aureus, MSSA, strain S. MSSA 580 (Table 7 No. 5)): 1 µg/mL (≈ 0.69 µM) | MIC50 (E. feacalis): 1 µg/mL (≈ 0.69 µM) | MIC90 (E. feacalis): 2 µg/mL (≈ 1.38 µM) | MICrange (E. feacalis; E. feacalis (5 strains), clinically isolated): 0.25 to 2 µg/mL | MIC (E. feacalis; strain Efa 54 (Table 8 No. 20)): 1 µg/mL (≈ 0.69 µM) | MIC (E. feacalis; strain Efa 116 (Table 8 No. 16)): 0.5 µg/mL (≈ 0.345 µM) | MIC (E. feacalis; strain Efa 907 (Table 8 No. 19)): 1 µg/mL (≈ 0.69 µM) | MIC (E. feacalis; strain Efa 3006 (Table 8 No. 18)): 2 µg/mL (≈ 1.38 µM) | MIC (E. feacalis; strain Efa 33748 (Table 8 No. 17)): 0.25 µg/mL (≈ 0.173 µM)

Source: patent US8916567B2, “Certain crystalline hydrates, pharmaceutical compositions thereof and methods for preparation and use thereof” (Universal Technology Alliance, Inc., priority 2009, dated 2014)
